Numbers after ± are expanded uncertainties.
Experiment: xn = mol fraction of the nth substance listed
Details: 101 kPa, Liquid; for speed of sound: Pulse-echo method

CCCNCCC [dipropylamine] + COC(C)(C)C
Details	mass density, 288.15 K [kg/m3]	mass density, 293.15 K [kg/m3]	mass density, 298.15 K [kg/m3]	mass density, 303.15 K [kg/m3]	mass density, 308.15 K [kg/m3]	speed of sound, 288.15 K [m/s]	speed of sound, 293.15 K [m/s]	speed of sound, 298.15 K [m/s]	speed of sound, 303.15 K [m/s]	speed of sound, 308.15 K [m/s]
x2 = 0	745.064 ± 0.82	740.501 ± 0.82	735.924 ± 0.83	731.333 ± 0.84	726.732 ± 0.85	1235.1 ± 1.2	1213.4 ± 1.2	1191.9 ± 1.2	1170.4 ± 1.2	1149 ± 1.2
x2 = 0.0455	744.529 ± 0.82	739.961 ± 0.83	735.381 ± 0.83	730.779 ± 0.84	726.199 ± 0.85	1226.5 ± 1.2	1204.6 ± 1.2	1182.9 ± 1.2	1161.5 ± 1.2	1140.1 ± 1.2
x2 = 0.0993	743.741 ± 0.82	739.141 ± 0.83	734.529 ± 0.83	729.903 ± 0.84	725.268 ± 0.85	1218.5 ± 1.2	1196.6 ± 1.2	1174.9 ± 1.2	1153.4 ± 1.2	1132 ± 1.2
x2 = 0.1886	743.725 ± 0.82	739.088 ± 0.83	734.436 ± 0.83	729.765 ± 0.84	725.081 ± 0.85	1206.8 ± 1.2	1184.9 ± 1.2	1163 ± 1.2	1141.4 ± 1.2	1120 ± 1.2
x2 = 0.304	744.015 ± 0.82	739.319 ± 0.83	734.607 ± 0.83	729.854 ± 0.84	725.082 ± 0.85	1191.2 ± 1.2	1169.1 ± 1.2	1147.2 ± 1.2	1125.5 ± 1.2	1103.9 ± 1.2
x2 = 0.3981	744.373 ± 0.82	739.628 ± 0.83	734.96 ± 0.83	730.165 ± 0.84	725.325 ± 0.85	1179 ± 1.2	1156.8 ± 1.2	1134.8 ± 1.2	1112.9 ± 1.2	1091.2 ± 1.2
x2 = 0.4954	744.92 ± 0.82	740.107 ± 0.83	735.272 ± 0.83	730.41 ± 0.84	725.531 ± 0.85	1164.9 ± 1.2	1142.8 ± 1.2	1120.8 ± 1.2	1099.1 ± 1.2	1076.8 ± 1.1
x2 = 0.5839	745.36 ± 0.82	740.49 ± 0.82	735.593 ± 0.83	730.664 ± 0.84	725.713 ± 0.85	1152.3 ± 1.2	1130 ± 1.2	1107.8 ± 1.2	1085.9 ± 1.1	1063.8 ± 1.1
x2 = 0.7057	745.893 ± 0.82	740.912 ± 0.82	735.904 ± 0.83	730.891 ± 0.84	725.831 ± 0.85	1131.9 ± 1.2	1109.4 ± 1.2	1087 ± 1.1	1064.9 ± 1.1	1042.5 ± 1.1
x2 = 0.7685	746.206 ± 0.82	741.193 ± 0.82	736.153 ± 0.83	731.058 ± 0.84	725.925 ± 0.85	1121.7 ± 1.2	1099.1 ± 1.2	1076.6 ± 1.1	1054.4 ± 1.1	1032 ± 1.1
x2 = 0.8876	746.684 ± 0.81	741.588 ± 0.82	736.455 ± 0.83	731.289 ± 0.84	726.066 ± 0.85	1103.9 ± 1.2	1080.8 ± 1.1	1057.9 ± 1.1	1035.3 ± 1.1	1012.9 ± 1.1
x2 = 0.9337	746.947 ± 0.81	741.806 ± 0.82	736.641 ± 0.83	731.421 ± 0.84	726.159 ± 0.85	1097 ± 1.2	1073.6 ± 1.1	1050.7 ± 1.1	1028 ± 1.1	1005.4 ± 1.1

— the NIST ThermoML archive (doi:10.1021/je900597n)
